According to patent US20250092044A1, “Kinase Inhibitors” (Incyte Corporation, priority 2023, published 2025):

Assays:
[1] = biological target: catalytic domain (JH1) of human JAK2 (Homo sapiens (Human), UniProt O60674); test: JAK2 LanthaScreen JH1 Binding Assay; settings: read-out: JH1 Bind IC50
Method in brief: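 FLAG-tagged biotinylated JH1 (aa 826-1132, baculovirus-expressed), 1.5 nM, with serially diluted compound, 50 nM fluorescent tracer and 0.5 nM streptavidin-Tb in pH 7.5 Tris buffer, 2 h at 25 °C; nonspecific binding with 2 mM ATP. TR-FRET read, IC50 by four-parameter fit.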

[2] = system: STAT5 (Tyr694) phosphorylation in SET-2 cells; test: STAT5 (Tyr694) Phosphorylation Cell Based Assay; settings: Homo sapiens, 2 hours, read-out: SET2 IC50
Method in brief: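 SET-2 cells in RPMI with 10% FBS were exposed to compound for 2 h at 37 °C (0.5% DMSO final). After lysis, phospho-STAT5 (Tyr694) was read by HTRF (665/620 ratio) after 24 h antibody incubation at room temperature. IC50 was fitted from percent control activity versus log concentration.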

[3] = system: pSTAT5 in SET-2 cells in whole blood; test: pSTAT5 SET-2 Whole Blood MSD Assay; format: cell-based; settings: Homo sapiens, 2 hour incubation, read-out: SET2 WB IC50
Procedure: SET-2 cells shipped from ABS, RPMI1640 medium, Fetal Bovine Serum from Gibco, Phospho-STAT5a,b Whole Cell Lysate Kit from Mesoscale, Retronectin (Recombinant Human Fibronectin Fragment) from TaKaRa, 96 well cell culture plate flat bottom from Corning, lysis buffer from Cell Signaling Technology, and sterile PBS from Gibco. Whole Blood from by BioIVT.
SET-2 cells were cultured in RPMI media with 20% FBS at 37° C. humidified incubator supplied with 5% CO2. On the day of the assay, 40 uL per well of diluted retronectin working solution was added to sterile 96-well clear flat bottom tissue culture plates (1:200 dilution of retronectin in sterile PBS) and incubated at 37 C for 1 hour. After 1 hour, the retronectin working solution was aspirated and SET-2 cells were seeded at 100,000/well in RPMI+20% FBS. Cells were incubated overnight at 37° C. and 5% CO2. The next day, the medium was removed and 40 μL of diluted compounds in serum-free RPMI and whole blood was added to the cells for a 2 hour incubation at 37° C. and 5% CO2. The compound starting concentration is 20 μM and 2.5 fold serial diluted down to 0.21 nM. The whole blood and compound mixture was then aspirated off using the BlueCat plate washer and washed 1× with PBS. Cells were lysed by adding 40 μL of 3× complete lysis buffer and shaken at room temperature for 45-60 minutes (complete lysis buffer consists of Cell Signaling Technology lysis buffer diluted to 3× and supplemented with Mesoscale's protease inhibitor, phosphatase I inhibitor, and phosphatase II inhibitor). The pSTAT5 MSD plates were blocked by adding 150 μL of Blocker A solution per well to the MSD plates and incubated at room temperature with shaking at 400 rpm for one hour or longer. After blocking, plates were washed 3× with 300 μL/well of 1× Tris Wash Buffer. After lysis, added 25 μL per well of lysed sample was added to MSD plate and incubated with shaking at 4° C. wrapped in foil overnight. The next day, plates were washed again and 25 μL/well of diluted 1× Detection Antibody Solution, wrapped in foil, and incubated at room temperature with shaking at 400 rpm for 1 hour. Plates were then washed again and lastly, 150 μL/well of 1× Read Buffer T was added to all wells. Plates were analyzed on MSD Discovery within 5 minutes. […] Data analysis was performed in GraphPad Prism using a 4-parameter fit and data was reported as Average±SD.

FLT3 [4] = test: FLT3 Enzymatic Assay; format: biochemical
Method in brief: (§1)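 Room-temperature HTRF kinase assay (665/620 nm ratio) with 0.011 nM FLT3, 1 mM ATP, 500 nM biotinylated TK substrate in HEPES pH 7.0 buffer with MgCl2 and DTT; 0.5% DMSO final. Read after 60 min incubation; IC50 fitted from percent control activity versus log concentration, no-ATP wells as negative control.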

FLT3 [5] = biological target: FLT3 (Homo sapiens (Human), UniProt P36888); test: FLT3 Enzymatic Assay; format: biochemical; settings: 1 mM ATP
Method in brief: as §1

Sequence of FLT3 (Homo sapiens (Human), UniProt P36888) (P36888 27-993, species assumed): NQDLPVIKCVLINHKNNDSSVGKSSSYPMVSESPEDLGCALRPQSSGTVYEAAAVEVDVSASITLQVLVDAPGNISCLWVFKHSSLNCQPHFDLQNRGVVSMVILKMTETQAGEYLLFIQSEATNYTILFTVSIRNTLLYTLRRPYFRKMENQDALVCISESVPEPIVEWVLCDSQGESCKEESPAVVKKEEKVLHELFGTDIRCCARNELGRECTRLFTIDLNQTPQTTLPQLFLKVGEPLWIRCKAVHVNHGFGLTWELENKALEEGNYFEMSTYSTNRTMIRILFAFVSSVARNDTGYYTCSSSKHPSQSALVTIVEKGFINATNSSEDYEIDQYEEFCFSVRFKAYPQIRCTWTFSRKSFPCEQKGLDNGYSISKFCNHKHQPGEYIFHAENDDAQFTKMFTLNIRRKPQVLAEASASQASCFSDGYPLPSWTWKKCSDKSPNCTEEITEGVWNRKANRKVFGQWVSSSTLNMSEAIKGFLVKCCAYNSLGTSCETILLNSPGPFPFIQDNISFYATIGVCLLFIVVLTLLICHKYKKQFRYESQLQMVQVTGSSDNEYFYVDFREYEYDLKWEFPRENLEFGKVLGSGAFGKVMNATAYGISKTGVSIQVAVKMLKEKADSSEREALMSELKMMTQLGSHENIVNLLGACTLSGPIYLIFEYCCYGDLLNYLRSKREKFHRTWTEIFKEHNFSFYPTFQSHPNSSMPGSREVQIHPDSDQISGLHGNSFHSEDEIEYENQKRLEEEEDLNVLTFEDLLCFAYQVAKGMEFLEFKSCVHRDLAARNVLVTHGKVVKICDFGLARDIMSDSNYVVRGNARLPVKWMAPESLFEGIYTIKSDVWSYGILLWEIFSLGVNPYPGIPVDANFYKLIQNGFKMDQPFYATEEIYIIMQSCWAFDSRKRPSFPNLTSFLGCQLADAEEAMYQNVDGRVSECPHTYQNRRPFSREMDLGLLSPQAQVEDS
Sequence of catalytic domain (JH1) of human JAK2 (O60674 826-1132): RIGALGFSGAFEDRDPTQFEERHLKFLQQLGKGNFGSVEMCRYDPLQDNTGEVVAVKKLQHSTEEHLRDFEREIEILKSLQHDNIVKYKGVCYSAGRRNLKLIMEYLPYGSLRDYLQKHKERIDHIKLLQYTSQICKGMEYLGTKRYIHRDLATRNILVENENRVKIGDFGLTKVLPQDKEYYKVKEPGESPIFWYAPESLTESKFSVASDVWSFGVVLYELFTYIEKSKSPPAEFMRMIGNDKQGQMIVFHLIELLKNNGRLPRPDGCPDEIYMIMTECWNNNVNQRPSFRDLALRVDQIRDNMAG

Structure (SMILES) | IC50 [1] [µM] | IC50 [2] [µM] | IC50 [3] [µM] | Selectivity FLT3/JH2 V617F (FLT3 [4]) | IC50 (FLT3 [5]) [µM]
COC(=O)N[C@@H]1CC[C@@H](n2c(=O)n(C)c3cnc4[nH]c(-c5ccc(CN(C)C)cc5)c(-c5ccc(F)cc5)c4c32)C1 [Example 28, Methyl ((1R,3R)-3-(7-(4-((dimethylamino)methyl)phenyl)-8-(4-fluorophenyl)-3-methyl-2-oxo-3,6-dihydroimidazo[4,5-d]pyrrolo[2,3-b]pyridin-1(2H)-yl)cyclopentyl)carbamate] | > 1 | 0.3 to 0.8 | ≤ 2.5 | ** (selectivity of >500-fold to ≤1500-fold) | 0.25 to 1.25
[2H]C([2H])([2H])N(Cc1ccc(-c2[nH]c3ncc4c(c3c2-c2ccc3c(c2)COC3(C)C)n([C@@H]2CC[C@@H](NC(=O)OC)C2)c(=O)n4C([2H])([2H])[2H])cc1)C([2H])([2H])[2H] [Example 29, Methyl ((1R,3R)-3-(7-(4-((bis(methyl-d3)amino)methyl)phenyl)-8-(1,1-dimethyl-1,3-dihydroisobenzofuran-5-yl)-3-(methyl-d3)-2-oxo-3,6-dihydroimidazo[4,5-d]pyrrolo[2,3-b]pyridin-1(2H)-yl)cyclopentyl)carbamate] | > 1 | ≤ 0.3 | ≤ 2.5 | **** (selectivity of >1750-fold to ≤5000-fold) | 0.25 to 1.25
[2H]C([2H])([2H])n1c(=O)n([C@@H]2CC[C@@H](NC(=O)OC)C2)c2c3c(-c4ccc5c(c4)COC5(C)C)c(-c4ccc(C(=O)N(C)C)cc4)[nH]c3ncc21 [Example 30, methyl ((1R,3R)-3-(8-(1,1-dimethyl-1,3-dihydroisobenzofuran-5-yl)-7-(4-(dimethylcarbamoyl)phenyl)-3-(methyl-d3)-2-oxo-3,6-dihydroimidazo[4,5-d]pyrrolo[2,3-b]pyridin-1(2H)-yl)cyclopentyl)carbamate] | > 1 | ≤ 0.3 | ≤ 2.5 | ***** (selectivity of >5000-fold to ≤12500-fold) | 0.25 to 1.25
